Assay type: physicochemical
Text: The short degradation period refers that the biodegradation effect is high; it has advantage that the secondary infection due to the suture is decreased.

poly(glycolide-co-L-lactide) [PGLA suture]
degradation behavior (in words): degradation of the suture was quickly progressed

From patent US20110135761A1, “ANTIMICROBIAL SUTURE FOR MEDICAL USE WITH GRAPEFRUIT EXTRACT, AND MANUFACTURING METHOD THEREOF” (Korea Institute of Ceramic Engineering and Technology, priority 2009, published 2011)
